# Biological target: T1, T. congolense sialidase (EC 3.2.1.18)
# T1 construct: native bloodstream-form enzyme, isolated and partially purified on a DEAE cellulose column
# Assay: enzyme inhibition kinetics (fetuin substrate, thiobarbituric acid assay, double reciprocal plot) with partially purified enzyme
# Format: biochemical, Trypanosoma congolense
structure (smiles),measurement,value
Oc1cc(O)cc(O)c1 [phloroglucinol],Ki,181 nM

# — paper PMC8781988, “Phloroglucinol as a Potential Candidate against Trypanosoma congolense Infection: Insights from In Vivo, In Vitro, Molecular Docking and Molecular Dynamic Simulation Analyses” (Molecules, 2022)
